Publication PMC2904697, “A Screen for Kinetochore-Microtubule Interaction Inhibitors Identifies Novel Antitubulin Compounds” (PLoS ONE, 2010)

Key:
HeLa cells = experiment: Mitotic delay and cell death in G1/S-synchronized HeLa cells (time-lapse videomicroscopy); format: cell-based, human
Description: At compound B concentrations of 5 µmol/l and above, the cells arrested robustly in metaphase (∼15 h) and then underwent cell death, as diagnosed by cell shrinkage (Fig. 3B). […] This phenotype is indicative of chromatids being unable to bind to spindle MTs and/or of spindle defects, as observed with nocodazole (Fig. 3C). […] Because drugs that inhibit tubulin polymerization also destabilize MTs, we next probed whether compound B destabilized metaphase spindles. We arrested HeLa cells in metaphase using 10 µmol/l of proteosome inhibitor MG132. […] Thus, compound B prevents tubulin assembly and destabilizes spindle MTs in cells.
Next, we determined whether the elevated antitubulin activities of compounds A6, A8, D7 and E7 (versus compound B), and the discrepancies in activity between the compounds themselves were reflected in their effects on mitosis. G1/S synchronized HeLa cells were released into growth medium containing 100 or 500 nmol/l of these compounds or compound B; the duration of the mitotic delay by the compounds and the percentage of cells undergoing subsequent cell death were scored. […] The four compounds triggered mitotic delays to an extent that directly reflects their activities in vitro (compare Fig. 6E and Fig. 6, panels B to D). […] Of note, each of our compounds acted in cells with an efficacy exceeding those measured in vitro (compare Fig. 6E and Fig. 5). This discrepancy may be due to increased compound:tubulin ratios in cells. Alternatively, the compounds may be modified intracellularly, resulting in enhanced activity. Because compound B and the four second-generation compounds are 6-furan-2-yl-3-methyl-4-oxo-4,5,6,7-tetrahydro-1H-indole-2-carboxylic acid derivatives, we have named these tubulin inhibitors “furan-metoticas”.

[1] = system: hTERT RPE-1, HCT-116 and A2780 cell lines; experiment: Viability analysis (CellTiter 96 Assay); format: cell-based; settings: Homo sapiens, 72 h, A2780 and HCT-116 cells, 3 d, 1–1000 nmol/l, read-out: IC50 for killing of cells (viability)
Description: RPE, a telomerase-immortalized cell line derived from retinal pigment epithelium, served as the non-cancer control. Antitubulin agents colchicine and nocodazole were used as controls for drug activity. The RPE, A2780, and HCT-116 cells were efficiently killed by compound A8 and the control drugs.
Viability analysis in the presence of antitubulin drugs was performed on hTERT RPE-1 (ATCC), HCT-116 (ATCC), and A2780 (EACC) cell lines. Cell lines were authenticated by PCR [22]. Absence of eight commonly encountered mycoplasma species was confirmed by PCR [23]. Experiments were performed with freshly thawed cells, which were seeded in 96-well MICROTEST tissue culture plates (Falcon) at ∼500 cells/well and grown at 37°C. After 6 h, nocodazole, colchicine or compound A8 were added (1–1000 nmol/l). The cells were incubated for 3 d at 37°C and then assayed for viability (CellTiter 96 Assay, Promega).

[2] = system: recombinant CLIP-170^488 binding to taxol-stabilized MTs; experiment: CLIP-170^488 binding to taxol-stabilized MTs (specificity control); settings: compound B at 50 µmol/l
Description: Figure 2 Compound B prevents the recombinant Ndc80 kinetochore complex from binding to taxol-stabilized microtubules. Effect of compound B (50 µmol/l) on binding of the Ndc80^488 complex to rhodamine-labeled, taxol-stabilized MTs as assayed using inverted wide-field fluorescence microscopy. The scale bar represents 4 µm (A). Structure of compound B; 6-furan-2-yl-3-methyl-4-oxo-4,5,6,7-tetrahydro-1H-indole-2-carboxylic acid (tetrahydro-furan-2-yl)methyl ester (B). Measurement of the IC50 value of compound B using total internal reflection fluorescence microscopy. The scale bar represents 4 µm (C). Compound B (50 µmol/l) prevented MT-associating protein CLIP-170^488, used as a specificity control, from binding to taxol-stabilized MTs. The scale bar represents 4 µm (D). […] The scale bar represents 4 µm (E).
A compound inhibiting the Ndc80^488 complex-MT interaction could act either against the complex or against the MTs. To probe the specificity of compound B toward the Ndc80^488 complex, we examined its ability to inhibit MT binding of recombinant CLIP-170^488, a MT plus-end tracking protein.

Row | Effect on binding of CLIP-170^488 to taxol-stabilized MTs [2] | Structure (SMILES) | Effect on mitosis at 500 nmol/l (HeLa cells; HeLa released from G1/S, 500 nmol/l) | IC50 [1] [nM] | Concentration inducing a mitotic delay (HeLa cells; HeLa released from G1/S) [µmol/L] | Concentration inducing cell death (HeLa cells; HeLa released from G1/S) [µmol/L] | Duration of metaphase arrest (HeLa cells; HeLa, compound concentrations of 5 µmol/l and above, followed by cell death) [h]
1 |  | CCSCCOC(=O)c1[nH]c2c(c1C)C(=O)C[C@@H](c1ccco1)C2 [A8] | robust mitotic block, followed by cell death | 25 |  |  | 
2 | prevented | Cc1c(C(=O)OCC2CCCO2)[nH]c2c1C(=O)CC(c1ccco1)C2 (stereo not drawn) [compound B, 6-furan-2-yl-3-methyl-4-oxo-4,5,6,7,-tetrahydro-1H-indole-2-carboxylic acid tetrahydro-furan-2-ylmethyl ester] |  |  | 1 to 10 | 5 to 10 | ~15
